Measurements: ChEMBL document CHEMBL5338785, “Development of Aromatic-Linked Diamino Acid Antimicrobial Peptide Mimics with Low Hemolytic Toxicity and Excellent Activity against Methicillin-Resistant Staphylococcus aureus (MRSA)” (J Med Chem, 2023)
The source made the active and inactive calls. The calls are words filed in the database; no cut-off is given here.

Experiments:
[1] = test system: Staphylococcus aureus; experiment: Antibacterial activity against methicillin-resistant Staphylococcus aureus assessed as bacterial growth inhibition; assay type: functional
[2] = test system: Enterococcus faecalis; experiment: Antibacterial activity against Enterococcus faecalis assessed as bacterial growth inhibition; assay type: functional
[3] = test system: Escherichia coli; experiment: Antibacterial activity against Escherichia coli assessed as bacterial growth inhibition; assay type: functional
[4] = test system: Stenotrophomonas maltophilia; experiment: Antibacterial activity against Stenotrophomonas maltophilia assessed as bacterial growth inhibition; assay type: functional
[5] = test system: Staphylococcus aureus; experiment: Antibacterial activity against methicillin-resistant Staphylococcus aureus assessed as bacterial growth inhibition incubated for 18 hrs by CLSI protocol based Mueller-Hinton broth assay; assay type: functional; settings: Staphylococcus aureus, read-out: MIC
[6] = test system: Enterococcus faecalis; experiment: Antibacterial activity against Enterococcus faecalis assessed as bacterial growth inhibition incubated for 18 hrs by CLSI protocol based Mueller-Hinton broth assay; assay type: functional; settings: Enterococcus faecalis, 18 h, read-out: MIC
[7] = test system: Escherichia coli; experiment: Antibacterial activity against Escherichia coli assessed as bacterial growth inhibition incubated for 18 hrs by CLSI protocol based Mueller-Hinton broth assay; assay type: functional; settings: Escherichia coli, read-out: MIC
[8] = test system: Stenotrophomonas maltophilia; experiment: Antibacterial activity against Stenotrophomonas maltophilia assessed as bacterial growth inhibition incubated for 18 hrs by CLSI protocol based Mueller-Hinton broth assay; assay type: functional; settings: Stenotrophomonas maltophilia, read-out: MIC
[9] = Hemolytic activity in sheep RBC assessed as hemolysis incubated for 1 hr by microplate reader method; assay type: toxicity, cell-based, Ovis aries, Erythrocyte; settings: sheep red blood cells
[10] = Selectivity index, ratio of HC50 for hemolytic activity in sheep RBC to MIC for antibacterial activity against methicillin-resistant Staphylococcus aureus assessed as bacterial growth inhibition; assay type: toxicity; settings: sheep red blood cells
[11] = Cytotoxicity against HUVEC cells assessed as reduction in cell viability incubated for 72 hrs by CCK8 assay; assay type: toxicity, cell-based; settings: human
[12] = Hemolytic activity in human erythrocytes assessed as hemolysis; assay type: toxicity, cell-based, Erythrocyte
[13] = Selectivity index, ratio of HC50 for hemolytic activity in human erythrocytes to MIC for antibacterial activity against methicillin-resistant Staphylococcus aureus assessed as bacterial growth inhibition; assay type: toxicity, cell-based
[14] = Hemolytic activity in mammalian RBC assessed as hemolysis at 320 ug/ml incubated for 1 hr by microplate reader analysis; assay type: toxicity, cell-based, Erythrocyte; settings: mammalia, mammalian red blood cells, at 320 µg/mL, read-out: Activity
[15] = Selectivity index, ratio of HC50 for hemolytic activity in sheep RBC to IC50 for antibacterial activity against Enterococcus faecalis assessed as bacterial growth inhibition; assay type: toxicity; settings: sheep red blood cells
[16] = Selectivity index, ratio of HC50 for hemolytic activity in sheep RBC to IC50 for antibacterial activity against Escherichia coli assessed as bacterial growth inhibition; assay type: toxicity; settings: sheep red blood cells
[17] = Selectivity index, ratio of HC50 for hemolytic activity in sheep RBC to IC50 for antibacterial activity against Salmonella enterica assessed as bacterial growth inhibition; settings: sheep red blood cells
[18] = test system: Staphylococcus aureus; experiment: Antibacterial activity against methicillin-resistant Staphylococcus aureus clinical isolates assessed as bacterial growth inhibition incubated for 18 hrs by CLSI protocol based Mueller-Hinton broth assay; assay type: functional
[19] = test system: Enterococcus faecium; experiment: Antibacterial activity against Enterococcus faecium clinical isolates assessed as bacterial growth inhibition incubated for 18 hrs by CLSI protocol based Mueller-Hinton broth assay; assay type: functional
[20] = test system: Escherichia coli; experiment: Antibacterial activity against carbapenems-resistant Escherichia coli expressing blaNDM-5 clinical isolates assessed as bacterial growth inhibition incubated for 18 hrs by CLSI protocol based Mueller-Hinton broth assay; assay type: functional
[21] = test system: Escherichia coli; experiment: Antibacterial activity against carbapenems-resistant Escherichia coli expressing blaNDM-3 clinical isolates assessed as bacterial growth inhibition incubated for 18 hrs by CLSI protocol based Mueller-Hinton broth assay; assay type: functional
[22] = test system: Escherichia coli; experiment: Antibacterial activity against carbapenems-resistant Escherichia coli expressing blaNDM-9 clinical isolates assessed as bacterial growth inhibition incubated for 18 hrs by CLSI protocol based Mueller-Hinton broth assay; assay type: functional
[23] = test system: Citrobacter freundii; experiment: Antibacterial activity against carbapenems-resistant Citrobacter freundii expressing blaNDM-1 clinical isolates assessed as bacterial growth inhibition incubated for 18 hrs by CLSI protocol based Mueller-Hinton broth assay; assay type: functional
[24] = test system: Pseudomonas aeruginosa; experiment: Antibacterial activity against carbapenems-resistant Pseudomonas aeruginosa expressing blaVIM-1 clinical isolates assessed as bacterial growth inhibition incubated for 18 hrs by CLSI protocol based Mueller-Hinton broth assay; assay type: functional
[25] = test system: Staphylococcus aureus; experiment: Bactericidal activity against methicillin-resistant Staphylococcus aureus assessed as decrease in viable count measured up to 4 hrs by time-killing kinetics assay; assay type: functional, organism-based; settings: dose 2-4 µg/ml
[26] = test system: Staphylococcus aureus; experiment: Bactericidal activity against methicillin-resistant Staphylococcus aureus assessed as decrease in viable count at 2 to 4 ug/ml by time-killing kinetics assay; assay type: functional, organism-based; settings: dose 2-4 µg/ml, time <= 4.0 hrs, TDE = time-dependent effect
[27] = test system: Staphylococcus aureus; experiment: Antibacterial activity against methicillin-resistant Staphylococcus aureus assessed as resistance development at 0.5 to 1 ug/ml measured after 20 days by resistance development assay; assay type: functional, organism-based; settings: dose 0.5-1 µg/ml, time 20.0 day
[28] = test system: Staphylococcus aureus; experiment: Induction of cytoplasmic membrane depolarization in methicillin-resistant Staphylococcus aureus assessed as enhancement of fluorescence intensity measured at 1 min interval for 16 mins by DiSC3(5) dye based fluorescence method; assay type: functional, organism-based; settings: dose 0.5-16 µg/ml
[29] = test system: Staphylococcus aureus; experiment: Induction of cytoplasmic membrane depolarization in methicillin-resistant Staphylococcus aureus assessed as fold increase in fluorescence intensity at 16 ug/ml measured at 1 min interval for 16 mins by DiSC3(5) dye based fluorescence method; assay type: functional; settings: dose 16 µg/ml
[30] = test system: Staphylococcus aureus; experiment: Antibacterial activity against methicillin-resistant Staphylococcus aureus assessed as bacterial growth inhibition in presence of phosphatidylglycerol incubated for 18 hrs by checkerboard microdilution assay; assay type: functional, organism-based
[31] = test system: Staphylococcus aureus; experiment: Antibacterial activity against methicillin-resistant Staphylococcus aureus assessed as bacterial growth inhibition in presence of phosphoethanolamine incubated for 18 hrs by checkerboard microdilution assay; assay type: functional, organism-based
[32] = test system: Staphylococcus aureus; experiment: Antibacterial activity against methicillin-resistant Staphylococcus aureus assessed as bacterial growth inhibition in presence of phosphatidylcholine incubated for 18 hrs by checkerboard microdilution assay; assay type: functional, organism-based
[33] = test system: Staphylococcus aureus; experiment: Induction of intracellular ROS accumulation in methicillin-resistant Staphylococcus aureus assessed as increase in fluorescence intensity incubated for 30 mins by DCFH-DA dye based fluorescence assay; assay type: functional, organism-based; settings: dose 0.125-8 µg/ml
[34] = test system: Staphylococcus aureus; experiment: Induction of intracellular ROS accumulation in methicillin-resistant Staphylococcus aureus assessed as fold increase in fluorescence intensity at 0.5 ug/ml incubated for 30 mins by DCFH-DA dye based fluorescence assay; assay type: functional; settings: dose 0.5 µg/ml
[35] = test system: Staphylococcus aureus; experiment: Antibacterial activity against methicillin-resistant Staphylococcus aureus assessed as fold decrease in MIC in presence of NAC incubated for 18 hrs by CLSI protocol based Mueller-Hinton broth assay; assay type: functional
[36] = test system: Staphylococcus aureus; experiment: Induction of morphological changes in methicillin-resistant Staphylococcus aureus assessed as appearance of wrinkled cell surface at 8 ug/ml incubated for 4 hrs by SEM analysis; assay type: functional, organism-based; settings: dose 8.0 µg/ml
[37] = test system: Staphylococcus aureus; experiment: Induction of morphological changes in methicillin-resistant Staphylococcus aureus assessed as appearance of shrunken cell surface at 8 ug/ml incubated for 4 hrs by SEM analysis; assay type: functional, organism-based; settings: dose 8.0 µg/ml
[38] = Toxicity in HUVEC cells assessed as morphological changes at 16 ug/ml incubated for 24 hrs by optical microscopy imaging analysis; assay type: cell-based; settings: human, dose 16 µg/ml
[39] = Toxicity in HUVEC cells assessed as live cells by measuring increase in green fluorescence at 16 ug/ml incubated for 24 hrs by calcein AM and propidium iodide staining based fuorescence microscopic analysis; assay type: cell-based; settings: human, dose 16 µg/ml
[40] = Toxicity in SPF Kunming mouse assessed as lethal dose administered for 3 days; settings: in vivo, 72 h, time 3 day
[41] = Metabolic stability in SPF Kunming mouse assessed as half life at 5 mg/kg/day, iv; assay type: ADME, organism-based; settings: in vivo
[42] = test system: Staphylococcus aureus; experiment: In vivo antibacterial activity against methicillin-resistant Staphylococcus aureus infected in SPF Kunming mouse assessed as reduction in amount of bacteria measure per abscess at 5 mg/kg ,ip administered every 12 hrs for 3 consecutive days; assay type: functional; settings: time 3 day
[43] = test system: Staphylococcus aureus; experiment: In vivo antibacterial activity against methicillin-resistant Staphylococcus aureus infected in SPF Kunming mouse assessed as reduction in amount of bacteria measured per abscess at 10 mg/kg ,ip administered every 12 hrs for 3 consecutive days; assay type: functional; settings: time 3 day
[44] = test system: Staphylococcus aureus; experiment: In vivo antibacterial activity against methicillin-resistant Staphylococcus aureus infected in SPF Kunming mouse assessed as reduction in neutrophils in skin tissue at 10 mg/kg ,ip administered every 12 hrs for 3 consecutive days; assay type: functional, organism-based; settings: time 3.0 day
[45] = test system: Staphylococcus aureus; experiment: Bactericidal activity against methicillin-resistant Staphylococcus aureus assessed as reduction in turbidity at 2 to 4 ug/ml measured after 6 hrs; assay type: functional, organism-based; settings: dose 2-4 µg/ml
[46] = Hemolytic activity in mammalian RBC assessed as hemolysis; assay type: toxicity, cell-based, Erythrocyte; settings: mammalia, mammalian red blood cells
[47] = Selectivity index, ratio of HC50 for hemolytic activity in mammalian RBC to MIC for antibacterial activity against methicillin-resistant Staphylococcus aureus assessed as bacterial growth inhibition; assay type: toxicity; settings: mammalian red blood cells
[48] = test system: Staphylococcus aureus; experiment: Antibacterial activity against methicillin-resistant Staphylococcus aureus assessed as bacterial growth inhibition incubated for 24 hrs by Luria-Bertani broth based method; assay type: functional
[49] = Hemolytic activity in human RBC assessed as hemolysis incubated for 1 hr; assay type: toxicity, cell-based, Erythrocyte; settings: human red blood cells
[50] = Selectivity index, ratio of HC50 for hemolytic activity in human RBC to MIC for antibacterial activity against methicillin-resistant Staphylococcus aureus assessed as bacterial growth inhibition; assay type: toxicity; settings: human red blood cells

SMILES: CCCCCCN(CCCCCCCCCCCCN(CCCCCC)C(=O)[C@@H](N)CCCCN)C(=O)[C@@H](N)CCCCN.Cl.Cl.Cl.Cl
- MIC [1]: 2 µg/mL
- MIC [2]: 1 µg/mL
- MIC [3]: 1 µg/mL
- MIC [4]: 1 µg/mL

SMILES: CCCCCCN(Cc1ccc(-c2ccc(CN(CCCCCC)C(=O)[C@@H](N)CCCCN)cc2)cc1)C(=O)[C@@H](N)CCCCN.O=C(O)C(F)(F)F.O=C(O)C(F)(F)F.O=C(O)C(F)(F)F.O=C(O)C(F)(F)F
- MIC [5]: 2 µg/mL
- MIC [6]: 2 µg/mL
- MIC ([7]; 18 h): 4 µg/mL
- MIC [8]: 4 µg/mL
- HC50 at 1 h [9]: 276 µg/mL
- selectivity ratio [10]: 138
- CC50 at 72 h [11]: 14.2 µg/mL
- MIC [1]: 3.1 µg/mL
- HC50 [12]: 230 µg/mL
- selectivity ratio [13]: 74.2

SMILES: CCCCCCN(CCCOc1ccccc1-c1ccccc1OCCCN(CCCCCC)C(=O)[C@@H](N)CCCCN)C(=O)[C@@H](N)CCCCN.Cl.Cl.Cl.Cl
- hemolysis at 1 h, 320 ug/ml [14]: < 1%
- MIC [5]: 0.5 µg/mL
- MIC [6]: 0.5 µg/mL
- MIC [7]: 2 µg/mL
- MIC [8]: 2 µg/mL
- HC50 at 1 h [9]: > 1000 µg/mL
- selectivity ratio [10]: > 2000
- selectivity ratio [15]: > 2000
- selectivity ratio [16]: > 500
- selectivity ratio [17]: > 500
- MIC50 [18]: 1 µg/mL
- MIC90 [18]: 2 µg/mL
- MIC50 [19]: 1 µg/mL
- MIC90 [19]: 2 µg/mL
- MIC [20]: 2 µg/mL
- MIC [21]: 2 µg/mL
- MIC [22]: 2 µg/mL
- MIC [23]: 2 µg/mL
- MIC [24]: 2 µg/mL
- Activity [25]: Dose-Dependent Effect
- Activity [26]: Tde
- Activity [27]: Active
- Activity [28]: Active
- fold change (FC) [29]: 10
- inhibition [30]: Active
- inhibition [31]: inactive
- inhibition [32]: inactive
- Activity [33]: Dose-Dependent Effect
- fold change (FC) [34]: 3.4
- fold change (FC) [35]: 16
- Activity [36]: Active
- Activity [37]: Active
- CC50 at 72 h [11]: 24.2 µg/mL
- Activity [38]: Non-Toxic
- Activity [39]: Non-Toxic
- LD50 [40]: > 200 mg/kg/day
- half-life [41]: 4.21 h
- Activity [42]: 758577.6 CFU
- Activity [43]: 46773.51 CFU
- Activity [44]: Active
- Activity [45]: Active

SMILES: CCCCCCCC[N+](C)(C)CCCCOc1ccc(OCCCC[N+](C)(C)CCCCCCCC)cc1.[Br-].[Br-]
- MIC [1]: 0.25 µg/mL
- HC50 [46]: 1210 µg/mL
- selectivity ratio [47]: 4840

SMILES: CCCCCCCC[N+](C)(C)CC(=O)NCCCCCCNC(=O)C[N+](C)(C)CCCCCCCC.[Br-].[Br-]
- MIC [48]: 1.9 µg/mL
- HC50 at 1 h [49]: 780 µg/mL
- selectivity ratio [50]: 410
